We go through 5 molecules from ChEMBL document CHEMBL4190325, “[…] Extracts as Tools to Balance Estrogenic and Chemopreventive Activities of Botanicals for Women's Health” (J Nat Prod, 2017).

The test system of one assay is Ishikawa. The experiment in a line: cells. The note with it: Homo sapiens, 96 h.
Another assay can be described thus: cells. As to conditions: Mus musculus, Hepa-1c1c7, 48 h; call rule not given here.
In assay [1] the target is NAD(P)H dehydrogenase [quinone] 1 (Mus musculus) (UniProt Q64669).
NAD(P)H dehydrogenase [quinone] 1 (Mus musculus), sequence (Q64669 whole entry): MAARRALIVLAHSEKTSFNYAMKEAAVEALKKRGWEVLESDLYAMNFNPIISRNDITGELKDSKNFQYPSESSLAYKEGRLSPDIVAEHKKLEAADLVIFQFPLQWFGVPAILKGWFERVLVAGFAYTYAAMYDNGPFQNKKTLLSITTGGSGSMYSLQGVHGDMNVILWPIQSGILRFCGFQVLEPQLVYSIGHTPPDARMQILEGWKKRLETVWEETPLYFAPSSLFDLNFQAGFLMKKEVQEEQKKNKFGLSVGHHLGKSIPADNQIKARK
Description: Induction of NQO1 activity in mouse Hepa1c1c7 cells after 48 hrs by MTT reduction assay
The target of a further assay is T1, Estrogen receptor (Homo sapiens, UniProt P03372).
T1 sequence (P03372 whole entry): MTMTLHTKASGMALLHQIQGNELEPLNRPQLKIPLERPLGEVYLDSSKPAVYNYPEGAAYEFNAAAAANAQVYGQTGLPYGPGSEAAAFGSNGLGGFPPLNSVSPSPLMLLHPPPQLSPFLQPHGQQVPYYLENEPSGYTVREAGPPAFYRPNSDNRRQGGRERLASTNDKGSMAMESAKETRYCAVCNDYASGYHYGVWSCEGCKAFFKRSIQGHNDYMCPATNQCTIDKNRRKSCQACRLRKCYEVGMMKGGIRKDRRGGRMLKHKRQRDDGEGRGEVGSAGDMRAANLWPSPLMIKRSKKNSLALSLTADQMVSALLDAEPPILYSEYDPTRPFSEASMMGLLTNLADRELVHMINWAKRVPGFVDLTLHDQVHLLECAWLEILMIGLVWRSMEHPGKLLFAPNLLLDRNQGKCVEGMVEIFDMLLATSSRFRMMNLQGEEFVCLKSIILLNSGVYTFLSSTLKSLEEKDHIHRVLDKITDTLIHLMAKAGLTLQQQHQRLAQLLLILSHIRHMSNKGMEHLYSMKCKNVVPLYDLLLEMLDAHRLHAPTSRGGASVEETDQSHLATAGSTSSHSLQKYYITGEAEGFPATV
Nature of the assay: Estrogenic activity at estrogen receptor alpha in human Ishikawa cells assessed as induction of alkaline phosphatase activity using p-Nitrophenol phosphate as substrate pretreated for 96 hrs followed by substrate addition measured every 15 secs by scanning spectrophotometric analysis. It is filed as cell-based.

Description for Ishikawa: Cytotoxicity against human Ishikawa cells after 96 hrs by SRB assay

For the molecule `CC(C)=CCc1c(O)cc2c(c1O)C(=O)CC(c1ccc(O)cc1)O2` (stereo unspecified), the results for the IC50 in the assay with Ishikawa and in the assay “cells” were above 5 µM and above 20 µM, respectively. Also, the CD in assay [1] is above 30 µM. The EC50 on Estrogen receptor (read-out: EC50) worked out at 400 nM.
With `CC(C)=CCc1c(O)cc(O)c2c1O[C@H](c1ccc(O)cc1)CC2=O`, the IC50 with Ishikawa was 19.1 µM; in the assay “cells”, above 20 µM. In addition, the CD in assay [1] was above 30 µM.
For the molecule `O=c1cc(-c2ccc(Br)cc2)oc2ccccc12`, the IC50 in “cells” is 0.7 to 166 µM.
Turning to `COc1cc(O)c(CC=C(C)C)c2c1C(=O)CC(c1ccc(O)cc1)O2` (stereo unspecified) [ISOXANTHOHUMOL], the IC50 in the assay on Ishikawa turned out to be 24.9 µM; in the assay “cells”, 30.7 µM. In assay [1], this molecule had a CD above 50 µM. Further, the EC50 at Estrogen receptor (read-out: EC50) was 1400 nM.
Consider `COc1cc(O)c(CC=C(C)C)c(O)c1C(=O)/C=C/c1ccc(O)cc1` [XANTHOHUMOL], for which the IC50 in the assay on Ishikawa is 4.2 µM; in “cells”, 17.5 µM. This molecule displayed a CD in assay [1] of 1.3 µM. For the same molecule, the EC50 result at Estrogen receptor (ishikawa) is reported as “Not Active”.
